From patent US8597904B2, “Pharmaceutical compositions for the treatment of conditions responsive to proteasome inhibition” (priority 2007, dated 2013) come the findings set out here.

Structures are written as SMILES. pIC50: −log10 of the molar value.

The test system of one assay is p53. The assay can be described thus: Western blot of total p53 protein levels in SK-N-SH cells. Format: cell-based, human. The method, then:
Because p53 is a key regulator and mediator of apoptosis, the total protein levels of p53 in the p53-wild type cell line SK-N-SH were measured after treatment of cells with syringolin A. As a control, the p53-deficient cell line SKOV3 was tested in parallel. Cells at a concentration of 1.0×10^5 cells per ml were first seeded in six-well plates containing 2 ml of culture medium per well. […] Cells were incubated for 0, 24, and 48 hours, harvested, and lysed in radioimmuno-precipitation assay (RIPA) buffer (20 mM Tris-HCl, pH 7.5, 0.1% sodium lauryl sulphate, 0.5% sodium deoxycholate, 135 mM NaCl, 1% Triton X-100, 10% glycerol, 2 mM EDTA), supplemented with a protease inhibitor cocktail (Roche Molecular Biochemicals, Indianapolis, Ind.) and phosphatase inhibitors sodium fluoride (NaF; 20 mM) and sodium vanadate (Na3VO4; 0.27 mM). The total protein concentration was determined using the protein assay dye reagent from Bio-Rad Laboratories (Hercules, Calif.) and bovine serum albumin (BSA) as a standard. Cell lysates in Laemmli sample buffer (Bio-Rad Laboratories, Hercules, Calif.) containing 5% (v/v) β-mercaptoethanol were boiled for 5 minutes, and equal amounts of total protein were analyzed by 10% sodium dodecyl sulphate-polyacrylamide gel electrophoresis (SDS-PAGE) and Western blotting using PVDF membranes. p53 was detected in Western blotting with mouse monoclonal anti-p53 (sc-126) (diluted 1:250) from Santa Cruz Biotechnology (Santa Cruz, Calif.). Actin was also detected as a loading control using mouse monoclonal anti-β-actin (A5316) (diluted 1:1000) from Sigma Chemical Co. (St. Louis, Mo.). Alternatively, lysates were blotted with rabbit monoclonal anti-caspase-3 (#9665) (diluted 1:1000) or rabbit polyclonal anti-Akt (#9272) (diluted 1:1000), both from Cell Signalling Technology, Inc. (Beverly, Mass.) to test for levels of procaspase-3 and Akt/PKB. Secondary anti-mouse (diluted 1:5000) and anti-rabbit (diluted 1:5000) antibodies coupled to horseradish peroxidase (HRP) were from Amersham Biosciences (Piscataway, N.J.). Proteins were detected using the ECL Plus reagents (Amersham Biosciences, Piscataway, N.J.) and Kodak BioMax XAR film (Fisher Scientific, Pittsburgh, Pa.). The results are representative of three (p53, procaspase-3) or four (Akt/PKB) independent experiments.
As inhibition of the proteasome is expected to result in increased levels of ubiquitinated proteins (Meng, et al. 1999. Proc. Natl. Acad. Sci. U.S.A. 96:10403-10408, which is incorporated herein by reference in its entirety), the effect of syringolin A on total ubiquitinated protein accumulation was analyzed by immunoblot analysis. To do so, SK-N-SH cells were seeded in 6-well cell culture plates at a concentration of 3.8×10^5 cells per ml (1.98 ml per well). […]
On the technique in general: A western blot detects proteins with antibodies after separation by electrophoresis.

The target in assay [1] is T1, proteasome activity in SK-N-SH neuroblastoma cells (Homo sapiens, UniProt P28074).
T1 construct: endogenous in cells; host or cells: SK-N-SH
T1 sequence (P28074 60-263): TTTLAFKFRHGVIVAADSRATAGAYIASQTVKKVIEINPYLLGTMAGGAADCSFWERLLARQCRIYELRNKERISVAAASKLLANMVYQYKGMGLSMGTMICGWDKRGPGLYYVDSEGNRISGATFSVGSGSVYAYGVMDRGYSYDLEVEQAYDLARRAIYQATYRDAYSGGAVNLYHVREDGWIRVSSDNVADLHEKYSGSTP
The assay can be described thus: Proteasome-Glo cell-based luminescent assay. The method, then: Syringolin A was tested as a proteasome inhibitor in vivo in cultured mammalian cancer cells. Inhibition of proteasome activity in human SK-N-SH neuroblastoma cells was measured using the Proteasome-Glo™ cell-based luminescent assay (Promega) in solid white 96-well microtiter cell culture plates. Ten μl of syringolin A (at various concentrations) was added to each well containing SK-N-SH cells (plated at a concentration of 1.0×10^5 cells/ml in 90 μl well volumes 24 hours prior) and a negative control and media only control were included. Cells were incubated with 1-100 μM syringolin A for 2 hours or 24 hours, and then equilibrated to room temperature for 15 minutes before 100 μl of Proteasome-Glo reagent (containing bioluminescent substrate Suc-LLVY-aminoluciferin) was added to the cells. Luminescence (indicated as relative luminescence units [RLU]) was read after 15-30 minutes on a Dynex MLX Luminometer.
To trace the kinetics of proteasome inhibition in the presence of syringolin, the same experiment was performed, but in this case, 100 μl of Proteasome-Glo reagent was added to cells first, followed by the addition of syringolin A at various concentrations, and the proteasome activity was measured over time.
The cell culture-based proteasome inhibition assay was performed as previously described (Groll et al. 2008. Nature 452:755-758, which is incorporated herein by reference in its entirety). Briefly, wells of white-walled 96-well microtiter cell culture plates were seeded at a density of 1×10^4 cells/well (SK-N-SH) or 5×10^3 cells/well (SKOV3) in 90 μl. After 24 hours, 10 μl GlbA or SylA were added at increasing concentrations (0-100 μM) and incubated for 2 hours. […] Cell Death Differ 9:1017-1025; Meng, et al. 1999. PNAS 96:10403-10408, each of which is incorporated herein by reference in its entirety) were used as positive and negative controls, respectively. Microtiter plates were then equilibrated to room temperature for 15 min before adding 100 μl of proteasome Glo™ reagent (containing bioluminescent substrate Suc-LLVY-aminoluciferin) per well. Luminescence was measured on a Dynex MLX luminometer, according to the manufacturer's instructions (Promega).

On to `CCCCCCC/C=C/C=C/C(=O)N[C@H](C(=O)N[C@H]1C[C@@H](O)CCNC(=O)/C=C/[C@H](C)NC1=O)[C@@H](C)O` [glidobactin A], for which the “total protein levels of p53” value in the assay with p53 (GlbA treatment) is listed as “strong accumulation of p53”. The “GlbA-induced p53 levels in presence of 3-MA” value with p53 (GlbA with 3-MA) was “partially reduced”. In addition, in assay [1] (2 hours, read-out: IC50 of proteasomal activity), the pIC50 is 7.26. The “potency of GlbA relative to SylA” value in assay [1] (ratio of IC50) is “approximately 26 fold”.
As to `CC(C)[C@H](NC(=O)N[C@H](C(=O)N[C@H]1/C=C/CCNC(=O)/C=C/[C@H](C(C)C)NC1=O)C(C)C)C(=O)O` [syringolin A], in the assay with p53 (20 μM, 24 hours after treatment), the p53 levels result is recorded as “rapidly increased”. Moreover, the “protein levels of tumor suppressor protein p53” value with p53 (25 μM, time-course up to 24 hours) is given as “time-dependent increase”. Moreover, the “proteasome activity in cells” value in assay [1] (2 hours incubation) is given as “dose-dependent decrease of proteasome activity”. Besides, the “kinetics of proteasome inhibition in cells” value in assay [1] (reagent added first, activity measured over time) is “inhibited proteasome activity in a time and dose-dependent manner in the micromolar range”.

A word on the pIC50: it is −log10 of the IC50, conventionally taken in molar units.
